The test system of assay [1] is metabolism of retinoic acid in human breast cancer cells. Description: Inhibition of retinoic acid (RA) metabolism (Example C.1). It counts as cell-based. The following applies: MCF-7 human breast cancer cells, 3H-RA as substrate, concentration needed to reduce the amount of metabolites to 50% of the control. From the text:
The property to delay the metabolism of retinoic acid can be evidenced in various in vitro and in vivo experiments. A particular in vitro procedure is described in example C.1 and tests the inhibitory activity of the compounds of formula (I) on the metabolism of retinoic acid in human breast cancer cells. The compounds of the present invention were also effective in suppressing induced vaginal keratinization effects in ovariectomized rats as is described in example C.2.
Inhibition of Retinoic Acid (RA) Metabolism
MCF-7 human breast cancer cells were grown as stock cultures according to art-known protocols. One day before the experiment, RA is added to the stock cultures to stimulate RA-metabolism. At the start of the experiment, cell suspensions were incubated in a tissue culture medium containing ^3H-RA as the substrate. Different concentrations of the test compound (dissolved in 1% DMSO) were added to the incubation mixtures, and at the end of the incubation, the unmetabolized RA is separated from its polar metabolites. The fraction containing the polar ^3H-labelled metabolites was collected and counted in a scintillation counter. For each experiment, a control and a blank incubation were run in parallel. Table 22 list the IC50 value (defined as the concentration in M needed to reduce the amount of metabolites to 50% of the control).

For assay [2], the system named is Ovariectomized rats. Nature of the assay: Vaginal keratinization test on ovariectomized rats (Example C.2). Type of assay: in vivo. The following applies: estradiol undecylate induced keratinization, per os once daily on days 1-3, active dose = 50% of rats show complete suppression. Summed up:
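Value is the lowest oral dose (mg/kg) at which half of tested rats show complete suppression of estradiol undecylate-induced vaginal keratinization by histology. Ovariectomized rats received 100 μg/100 g estradiol undecylate s.c., then compound or PEG 200 vehicle p.o. daily for three days; sacrifice one day later.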

`CCC(CC)C(c1ccc(NC(=O)Cc2ccc(O)c(Cl)c2)cc1)n1ccnc1` (racemic) [Compound 117]: the half-inhibitory concentration (IC50) in assay [1] came out at 0.255 nM. In addition, the “LAD (lowest active dose)” value in assay [2] is recorded as above 2.50 mg/kg.
For the molecule `CC(C)C(c1ccc(NC(=O)C2CC2C)cc1)n1ccnc1` (mixture of isomers) [Compound 197], the IC50 in assay [1] is 5.61 nM. Moreover, in assay [2], the “LAD (lowest active dose)” value was above 10.00 mg/kg.
In the case of `CCOc1ccc(CC(=O)Nc2ccc(C(C(C)C)n3cncn3)cc2)cc1` (stereo not drawn) [Compound 135], the IC50 in assay [1] came to 1.43 nM. Also, the “LAD (lowest active dose)” value in assay [2] amounted to 2.50 mg/kg.
`CC(C)C(c1ccc(NC(=O)Cc2ccc([N+](=O)[O-])cc2)cc1)n1ccnc1` (stereo not drawn) [Compound 151]: in assay [1], the IC50 was determined as 2.11 nM. In addition, the “LAD (lowest active dose)” value in assay [2] stood at 5.00 mg/kg.
For `COc1ccc(CC(=O)Nc2ccc(C(C(C)C)n3ccnc3)cc2)cc1OC` (stereo not drawn) [Compound 140] the same measures were 21.5 nM and 5.00 mg/kg.
Take `CC(C)C(c1ccc(NC(=O)Nc2ccc(Cl)cc2)cc1)n1ccnc1` (racemic) [Compound 739]: the IC50 in assay [1] is 42.1 nM. In addition, in assay [2], the “LAD (lowest active dose)” value was above 10.00 mg/kg.
As for `COCC(C)C(c1ccc(NC(=O)Cc2ccc(OC)c(OC)c2)cc1)n1ccnc1` (single isomer, unassigned) [Compound 405], the IC50 in assay [1] came out at 3.68 nM. Also, the “LAD (lowest active dose)” value in assay [2] is recorded as 5.00 mg/kg.
For the molecule `CC(C)C(c1ccc(NC(=O)c2cnc3ccccc3n2)cc1)n1ccnc1` (racemic) [Compound 216], the IC50 in assay [1] was found to be 11.7 nM. In assay [2], the “LAD (lowest active dose)” value turned out to be 20.00 mg/kg.
Consider `CCN(C(=O)/C(C)=C/c1ccccc1)c1ccc(C(C(C)C)n2ccnc2)cc1` (racemic) [Compound 422], for which the IC50 in assay [1] was above 10 nM. The “LAD (lowest active dose)” value in assay [2] is above 10.00 mg/kg.
Regarding `CC(C)C(c1ccc(NC(=O)c2ccc3c(c2)C(C)(C)CCC3(C)C)cc1)n1ccnc1` (racemic) [Compound 252], the IC50 in assay [1] came out at 2.59 nM. For the same molecule, the “LAD (lowest active dose)” value in assay [2] was above 10.00 mg/kg.
In the case of `CCC(=Cc1ccccc1)C(=O)Nc1ccc(C(C(C)C)n2ccnc2)cc1` (racemic) [Compound 457], the half-maximal inhibitory concentration (IC50) in assay [1] came out at 25 nM. The “LAD (lowest active dose)” value in assay [2] is above 20.00 mg/kg.
On to `C/C(=C\c1ccncc1)C(=O)Nc1ccc(C(C(C)C)n2ccnc2)cc1` (stereo not drawn) [Compound 576], for which the IC50 in assay [1] was found to be 20.1 nM. Moreover, the “LAD (lowest active dose)” value in assay [2] was 10.00 mg/kg.
For the molecule `CC(C)C(c1ccc(NC(=O)C2CCOC2)cc1)n1ccnc1` (racemic) [Compound 185], the IC50 in assay [1] was 39.7 nM. In assay [2], the “LAD (lowest active dose)” value was 10.00 mg/kg.
On to `CCC(CC)C(c1ccc(NC(=O)Cc2ccc3c(c2)OCCO3)cc1)n1ccnc1` (racemic) [Compound 36], for which, in assay [1], the half-inhibitory concentration (IC50) was 1.43 nM. The “LAD (lowest active dose)” value in assay [2] is listed as 5.00 mg/kg.
On to `O=C(C=C(c1ccccc1)c1cccnc1)Nc1ccc(C(c2ccc(Cl)cc2)n2ccnc2)cc1` (racemic) [Compound 516], for which the IC50 in assay [1] is above 1000 nM.
Regarding `CCC(CC)C(c1ccc(NC(=O)C(O)c2ccc(Cl)cc2)cc1)n1cncn1` (racemic) [Compound 17, (±)-A1-4-chloro-N-[4-[2-ethyl-1-(1H-1,2,4-triazol-1-yl)butyl]phenyl]-α-hydroxybenzeneacetamide], in assay [1], the half-maximal inhibitory concentration (IC50) worked out at 0.999 nM.
Consider `CC(C)C(c1ccc(NC(=N)Nc2cccc(F)c2)cc1)n1ccnc1` (stereo not drawn) [Compound 744, N′-(3-fluorophenyl)-N-[4-[1-(1H-imidazol-1-yl)-2-methylpropyl]phenyl]guanidine], for which, in assay [1] (MCF7), the half-maximal inhibitory concentration (IC50) was above 100 nM.
As for `CCC(CC)C(c1ccc(NC(=O)Cc2cc(OC)ccc2OCc2ccccc2)cc1)n1ccnc1` (racemic) [Compound 120], the IC50 in assay [1] is 3.88 nM.
As for `CCC(CC)C(c1ccc(NC(=O)Cc2ccc(OC)nc2)cc1)n1ccnc1` (racemic) [Compound 51], the IC50 in assay [1] turned out to be 0.895 nM.
With `CCCCCC(C)C(c1ccc(NC(=O)/C(C)=C/c2ccccc2)cc1)n1ccnc1` (single isomer, unassigned) [Compound 488], the 50% inhibitory concentration (IC50) in assay [1] is above 100 nM.
Still for that read-out and setting: the result for `CC(C)C(c1ccc(NC(=O)Cc2ccc(N=[N+]=[N-])c(I)c2)cc1)n1ccnc1` (stereo not drawn) [Compound 259, (B)-4-azido-N-[4-[1-(1H-imidazol-1-yl)-2-methylpropyl]phenyl]-3-iodobenzenacetamide] reads 9.29 nM; that for `Cc1cncn1C(c1ccc(Cl)cc1)c1ccc(NC(=O)C=C(c2ccccc2)c2cccc(Cl)c2)cc1` (mixture of isomers) [Compound 693], above 100 nM.
In the case of `CC(C)C(c1ccc(NC(=O)Nc2cccc(F)c2)cc1)c1ccccn1` (stereo not drawn) [Compound 691], the IC50 in assay [1] is above 100 nM.
Turning to `C/C(=C\c1ccccc1)C(=O)Nc1ccc(C(c2cccc(F)c2)n2cncn2)cc1` (stereo not drawn) [Compound 620], in assay [1], the IC50 was above 1000 nM.
On to `O=C(Nc1ccc(C(c2ccc(Cl)cc2)n2ccnc2)cc1)Nc1cccc(F)c1` (racemic) [Compound 731], for which the IC50 in assay [1] is above 100 nM.
Turning to `CCC(CC)C(c1ccc(NC(=O)Cc2cc(C)ccc2O)cc1)n1ccnc1` (racemic) [Compound 124], in assay [1], the IC50 turned out to be 0.0397 nM.
In the case of `CC(C)C(c1ccncc1)c1ccc(NC(=O)Cc2ccc(Cl)cc2)cc1` (racemic) [Compound 685], the IC50 in assay [1] is 90.8 nM.
Take `CC(C(c1ccc(NC(=O)Cc2ccc(O)c(Cl)c2)cc1)n1cncn1)N(C)C` (mixture of isomers) [Compound 299]: in assay [1], the half-inhibitory concentration (IC50) turned out to be 0.772 nM.
In the case of `CC(C)C(c1ccc(NC(=O)Cc2ccc(N=[N+]=[N-])c(I)c2)cc1)n1ccnc1` (single isomer, unassigned) [Compound 260], the concentration for half-maximal inhibition (IC50) in assay [1] worked out at 2.43 nM.
For `CC(C)C(c1ccc(NC(=O)Cc2ccc(N)cc2)cc1)n1ccnc1` (single isomer, unassigned) [Compound 147], the concentration for half-maximal inhibition (IC50) in assay [1] was determined as 33 nM.
With `CC(C)C(c1ccc(NC(N)=S)cc1)n1ccnc1` (racemic) [Compound 699, (±)-4-[1-(1H-imidazol-1-yl)-2-methylpropyl]phenylthiourea], the IC50 in assay [1] (MCF7) stood at 9.69 nM.
For `CCC(C(c1ccc(NC(=O)Cc2ccc(OC)c(OC)c2)cc1)n1ccnc1)N(C)C` (single isomer, unassigned) [Compound 388], the IC50 in assay [1] came to 0.829 nM.
`CC(C(c1ccc(NC(=O)Cc2ccc(O)c(Cl)c2)cc1)n1ccnc1)N(C)C` (single isomer, unassigned) [Compound 303]: the half-maximal inhibitory concentration (IC50) in assay [1] stood at 3.26 nM.
Take `O=C(C=C(c1ccccc1)c1cccnc1)Nc1ccc(C(c2ccc(F)cc2)n2ccnc2)cc1` (racemic) [Compound 517]: the IC50 in assay [1] was determined as 36.9 nM.
On the same count and under the same terms, the result for `CCC(CC)C(c1ccc(NC(=O)Cc2cccc(O)c2)cc1)n1ccnc1` (stereo not drawn) [Compound 781, (B)-N-[4-[2-ethyl-1-(1H-imidazol-1-yl)butyl]phenyl]-3-hydroxy-benzeneacetamide ethanedioate (1:1)] reads 3.24 nM.
As to `COc1ccc(CCCC(=O)Nc2ccc(C(C(C)N(C)C)n3ccnc3)cc2)cc1OC` (single isomer, unassigned) [Compound 336], the IC50 in assay [1] stood at 1.91 nM.
Same read-out and setting: for `CC(=O)Nc1ccc(C(c2cccc(F)c2)n2cncn2)cc1` (stereo not drawn) [Compound 616] the value was above 1000 nM; for `CCC(CC)C(c1ccc(NC(C)=O)cc1)n1cncn1` (stereo not drawn) [Compound 1], 0.138 nM.
As to `CCC(CC)C(c1ccc(NC(=O)COc2ccccc2OC)cc1)n1cncn1` (racemic) [Compound 12], in assay [1], the IC50 is 0.0365 nM.
With `CCC(CC)C(c1ccc(NC(=O)C(O)c2ccc(Cl)cc2)cc1)n1ccnc1` (stereo not drawn) [Compound 54], the IC50 in assay [1] amounted to 4.86 nM.
With `COc1ccc(CC(=O)Nc2ccc(C(C(C)N(C)C)n3ccnc3)cc2)cc1Cl` (single isomer, unassigned) [Compound 305], in assay [1], the IC50 is 0.0829 nM.
With `CCC(c1ccc(NC(=O)Cc2ccc(Cl)cc2)cc1)(C(C)C)n1ccnc1` (racemic) [Compound 755], the IC50 in assay [1] worked out at 4.35 nM.
Take `COc1ccc(CC(=O)Nc2ccc(C(C(C)N(C)CCc3ccccc3)n3ccnc3)cc2)cc1OC` (mixture of isomers) [Compound 415]: in assay [1], the IC50 was 2.64 nM.
On to `CC(C)C(c1ccc(NC(=O)Cc2ccc(Cl)cc2)cc1)c1ccccn1` (racemic) [Compound 687], for which, in assay [1], the IC50 is above 100 nM.
For `Cc1cnc(C(=O)Nc2ccc(C(C(C)C)n3ccnc3)cc2)cn1` (racemic) [Compound 225], the IC50 in assay [1] was found to be 82.8 nM.
`CCC(CC)C(c1ccc(NC(=O)Cc2cccc(O)c2)cc1)n1ccnc1` (stereo not drawn) [Compound 780, (A)-N-[4-[2-ethyl-1-(1H-imidazol-1-yl)butyl]phenyl]-3-hydroxybenzeneacetamide ethanedioate (1:1)]: the IC50 in assay [1] is 4.57 nM.
For the molecule `Cc1ccoc1C(=O)Nc1ccc(C(C(C)C)n2ccnc2)cc1` (racemic) [Compound 226], in assay [1], the IC50 is 16.9 nM.
For the molecule `C/C(=C\c1ccccc1)C(=O)Nc1ccc(C(c2ccc3c(c2)C(C)(C)CCC3(C)C)n2ccnc2)cc1` (racemic) [Compound 491], the 50% inhibitory concentration (IC50) in assay [1] worked out at 1.84 nM.
The same measure, in the same setting: the result for `O=C(/C=C/c1ccccc1)Nc1ccc(C(c2cccc(C(F)(F)F)c2)n2cncn2)cc1` (racemic) [Compound 617] reads 151 nM.

For the origin of these results see patent US7179825B2, “Retinoic acid mimetic anilides” (Janssen Pharmaceutica N.V., priority 1997, dated 2007).
